# Data taken from PubChem BioAssay AID651650 (Sanford-Burnham Center for Chemical Genomics, 2012).
# Active and inactive are the calls of the source.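 How the source made its calls: active means mean IC50 below 20 µM in each of the two panels, so potent in both; inactive means the rest.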
# Target: Neuropilin-1 (Homo sapiens) (UniProt O14786)
# Experiment: NRP-1 b1b2 CendR peptide binding inhibitors, dose response, biochemical, FP and AlphaScreen panel (AID 651650)
# Conditions: NRP-1 b1b2 / RPARPAR peptide binding, FP or AlphaScreen
# [1] = AlphaScreen, run 1, individual panel run IC50
# [2] = FP, run 1, individual panel run IC50
# [3] = FP, run 2, individual panel run IC50
# Neuropilin-1 (Homo sapiens), sequence (O14786 whole entry, looked up): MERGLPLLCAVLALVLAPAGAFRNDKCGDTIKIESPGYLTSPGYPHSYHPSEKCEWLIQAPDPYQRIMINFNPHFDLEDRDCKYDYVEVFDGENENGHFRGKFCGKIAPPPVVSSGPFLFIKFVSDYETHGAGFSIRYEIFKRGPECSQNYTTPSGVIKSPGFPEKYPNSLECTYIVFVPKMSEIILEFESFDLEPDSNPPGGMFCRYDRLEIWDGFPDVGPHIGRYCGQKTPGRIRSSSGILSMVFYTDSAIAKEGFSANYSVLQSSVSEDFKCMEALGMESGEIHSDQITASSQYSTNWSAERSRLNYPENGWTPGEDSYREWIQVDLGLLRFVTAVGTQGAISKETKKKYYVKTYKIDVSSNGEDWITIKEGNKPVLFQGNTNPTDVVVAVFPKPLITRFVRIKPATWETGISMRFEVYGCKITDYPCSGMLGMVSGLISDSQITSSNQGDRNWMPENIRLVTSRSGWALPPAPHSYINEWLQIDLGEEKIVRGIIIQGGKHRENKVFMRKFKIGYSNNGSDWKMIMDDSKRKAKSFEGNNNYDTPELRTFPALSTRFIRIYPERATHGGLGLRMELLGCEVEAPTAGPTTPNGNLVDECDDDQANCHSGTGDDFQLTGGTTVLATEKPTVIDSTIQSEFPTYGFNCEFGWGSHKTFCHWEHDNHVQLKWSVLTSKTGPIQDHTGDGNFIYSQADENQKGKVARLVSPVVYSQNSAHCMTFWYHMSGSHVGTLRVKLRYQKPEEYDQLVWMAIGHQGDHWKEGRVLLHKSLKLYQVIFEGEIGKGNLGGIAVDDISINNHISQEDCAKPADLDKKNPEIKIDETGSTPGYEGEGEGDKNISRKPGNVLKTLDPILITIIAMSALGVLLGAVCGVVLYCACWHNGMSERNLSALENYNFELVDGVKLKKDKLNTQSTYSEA
Structure (SMILES),"IC50 (AlphaScreen, mean of runs)",IC50 [1] [µM],"IC50 (FP, mean of runs)",IC50 [2] [µM],IC50 [3] [µM]
COc1cccc(N2[C@@H](CC(C)=O)c3ccc(/C=C/C(C)=O)cc3S2(=O)=O)c1,> 100 µM (inactive),> 100,> 95 µM (inactive),> 95,> 95
C[C@@H](NC(=O)c1[nH]cnc1C(=O)Nc1cccc(Cl)c1)c1ccccc1,inactive,21.8,> 95 µM (inactive),> 95,> 95
C=C1C[C@@]23CCC4[C@@](C)(CCC[C@@]4(C)C(=O)O)C2CC[C@]1(O)C3 (stereo not given in full),> 100 µM (inactive),> 100,> 95 µM (inactive),> 95,> 95
CN1CCC(=NNC(=O)c2ccco2)CC1,> 100 µM (inactive),> 100,> 95 µM (inactive),> 95,> 95
CC1(c2ccccc2)CC(C)(C)n2c(O)c(C3=NC(=S)NC3=O)c3cccc1c32 (stereo not given),> 100 µM (inactive),> 100,> 95 µM (inactive),> 95,> 95
C=CCN(CC=C)C(=O)C1CC(=O)N(c2ccc(Br)cc2)C1 (stereo not given),> 100 µM (inactive),> 100,> 95 µM (inactive),> 95,> 95
COc1ccc(C(C(=O)NC(C)(C)C)N(C(=O)CCC(=O)Nc2cc(C)on2)c2c(C)cccc2C)cc1 (stereo not given),> 100 µM (inactive),> 100,> 95 µM (inactive),> 95,> 95
CC(=O)c1ccc(OCC(=O)Nc2nnc(C3CC3)s2)cc1,> 100 µM (inactive),> 100,> 95 µM (inactive),> 95,> 95
NC(=O)C1=C[C@H](c2ccc(Br)cc2)C[C@H](OCc2ccc(CO)cc2)O1,> 100 µM (inactive),> 100,> 95 µM (inactive),> 95,> 95
FC(F)(F)C1CC(c2cccs2)Nc2ncnn21 (stereo not given),> 100 µM (inactive),> 100,> 95 µM (inactive),> 95,> 95
COc1ccc(C(CNc2ccc(S(=O)(=O)N3CCCC3)cc2[N+](=O)[O-])N2CCCC2)cc1 (stereo not given),12.2 µM,12.2,> 95 µM (inactive),> 95,> 95
O=C(NCCCN1CCOCC1)c1ccc2c(=O)n(-c3ccc(F)c(Cl)c3)c(=S)[nH]c2c1,> 100 µM (inactive),> 100,> 95 µM (inactive),> 95,> 95
CCOc1ccccc1C1CC(=O)NC2=C1C(=O)CC(C)(C)C2 (stereo not given),> 100 µM (inactive),> 100,> 95 µM (inactive),> 95,> 95
O=C(COC(=O)c1ccccn1)c1ccc([N+](=O)[O-])cc1,> 100 µM (inactive),> 100,> 95 µM (inactive),> 95,> 95
CC(Nc1ccc2ccccc2c1)C(=O)N/N=C/c1ccncc1 (stereo not given),> 100 µM (inactive),> 100,> 95 µM (inactive),> 95,> 95
CC1(C)CN=C(Nc2ccc(F)c(Cl)c2)S1,18.9 µM,18.9,> 95 µM (inactive),> 95,> 95
Cc1cccc(N(CC(=O)NC2CCCC2)C(=O)CS(=O)CC(=O)Nc2ccc3c(c2)OCO3)c1C (stereo not given),> 100 µM (inactive),> 100,> 95 µM (inactive),> 95,> 95
CCN(CC)C(=O)CSc1nnc(-c2c[nH]c3ccccc23)o1,> 100 µM (inactive),> 100,> 95 µM (inactive),> 95,> 95
